Data taken from patent US20260240800A1, “ELAFIBRANOR FOR THE TREATMENT OF PRIMARY BILIARY CHOLANGITIS” (Genfit, priority 2023, published 2026).

Tested on: participants with primary biliary cholangitis
Experiment: NCT04526665 (ELATIVE) double-blind, placebo-controlled phase 3 clinical trial
Type: in vivo, human
Procedure: Participants aged 18 to 75 years, who had been diagnosed with primary biliary cholangitis according to established criteria, were recruited at 82 sites in 14 countries. Inclusion criteria were an alkaline phosphatase level of ≥1.67 times the upper limit of the normal range (ULN), and a total bilirubin level of ≤2 times the ULN. Prior to screening, eligible participants had received 13 to 15 mg/kg ursodeoxycholic acid treatment per day for at least 12 months (stable dose for at least 3 months) or were intolerant to ursodeoxycholic acid (no treatment for at least 3 months).
In this double-blind, placebo-controlled, phase 3 trial, participants with an inadequate response or intolerance to ursodeoxycholic acid were randomized 2:1 to receive elafibranor 80 mg or placebo once daily. Participants receiving stable doses of ursodeoxycholic acid for at least three months prior to enrollment continued their treatment regimen throughout the trial. The overall double-blind treatment period consisted of two parts. In part one, all randomized participants received a minimum of 52 weeks of double-blind treatment. In part two, participants continued to receive double-blind treatment beyond Week 52 in a variable treatment period until all participants had completed their Week 52 assessment or until a maximum treatment duration of 104 weeks, whichever came first. The first database lock occurred after the last participant completed their Week 52 visit in the double-blind period. At the end of the double-blind period (lasting 52 to 104 weeks), participants could optionally enter an open-label extension where they would receive elafibranor 80 mg for up to five years.
The primary endpoint of Study NCT04526665 was response to treatment in the intent-to-treat population at Week 52, defined as ALP<1.67×ULN, TB≤ULN, and ALP decrease ≥15% from baseline. The primary endpoint was also analyzed according to baseline alkaline phosphatase levels of ≤3 times versus >3 times the ULN.
From September 2020 through May 2023, 161 participants were randomly assigned to receive elafibranor 80 mg (108 participants) or placebo (53 participants); these participants made up the intent-to-treat (ITT) and safety populations.

CSc1ccc(C(=O)C=Cc2cc(C)c(OC(C)(C)C(=O)O)c(C)c2)cc1 [elafibranor, 2-(2,6-dimethyl-4-{3-[4-(methylsulfanyl)phenyl]-3-oxoprop-1-en-1-yl}phenoxy)-2-methylpropanoic acid]
efficacy in baseline ALP >1.67×ULN and ≤3×ULN relative to baseline ALP >3×ULN (80 mg daily): more than 3 times | Primary endpoint met at week 52, n (%) (1.67 ULN < ALP ≤ 3 ULN, ITT Analysis Set, n=65): 46 (70.8) n (%) | Response according to Paris I criteria: Primary endpoint met at week 52, n (%) (ALP <3×ULN, AST <2×ULN and TB ≤1 mg/dL, ITT Analysis Set, n=106): 73 (68.9) n (%) | Primary endpoint met at week 52, n (%) (ALP > 3 ULN, ITT Analysis Set, n=43): 9 (20.9) n (%) | safety and tolerability in patients (PBC patients): safe and well-tolerated | Odds Ratio of response (elafibranor vs placebo), Paris I criteria (Week 52, ITT Analysis Set): 2.852 | Proportion of responders (Paris I criteria) (Week 52, ITT Analysis Set): 0.689 | Risk difference (Paris I response, elafibranor vs placebo) (Week 52, ITT Analysis Set): 0.220 | difference in Paris I response vs placebo (Week 52, ITT Analysis Set): 22.0% | participants with response based on ALP<3×ULN, AST<2×ULN and TB≤1 mg/dl (Paris I) (Week 52, ITT Analysis Set, 73/106): 68.9% | complete normalization of alkaline phosphatase at Week 52, difference vs placebo (all participants, Week 52): 15% | complete normalization of alkaline phosphatase at Week 52, odds ratio vs placebo (all participants, Week 52, 95% CI 2.8 to infinity): infinity | complete normalization of alkaline phosphatase at Week 52, % of participants (all participants, elafibranor 80 mg once daily, Week 52): 15% | complete normalization of alkaline phosphatase at Week 52, % of patients (baseline ALP >3 times the ULN): 4.7% | participants who met the primary endpoint (ALP<1.67×ULN, TB≤ULN, ALP decrease ≥15%) (baseline ALP >3 times the ULN (43 participants), Week 52): 20.9% | frequency of ALP normalization relative to other participants (FIG. 4) (baseline ALP more than 1.67×ULN and at most 2×ULN vs others, Week 52): at least 4 times | participants with a biochemical response at Week 52 (FIG. 3) (baseline ALP more than 1.67×ULN and at most 2.5×ULN): more than 80% | participants with a biochemical response at Week 52 (FIG. 3) (baseline ALP more than 2.5×ULN and at most 3×ULN): more than 50% | participants with a biochemical response at Week 52 (FIG. 3) (baseline ALP more than 3×ULN): less than 23% | biochemical response and ALP normalization rates by baseline ALP (FIGS. 3 to 5) (baseline ALP ≤3 ULN versus higher baseline ALP): higher biochemical response and ALP normalization rates | complete normalization of alkaline phosphatase at Week 52, % of patients (baseline ALP ≤3 times the ULN): 21.5% | participants who met the primary endpoint (ALP<1.67×ULN, TB≤ULN, ALP decrease ≥15%) (baseline ALP ≤3 times the ULN (65 participants), Week 52): 70.8% | reductions in alkaline phosphatase levels over time (baseline through Week 4, sustained significantly lower than placebo through Week 52): Rapid reductions | reduction in plasma ALP levels from baseline compared to placebo (treatment with elafibranor vs placebo): statistically significant reduction
